According to US20060078961A1, “Systems and methods for rapidly changing the solution environment around sensors” (priority 2002, published 2006):

System: PC-12 cell
Settings: flow rate 3.24 mm/s, scanning speed 250 μm/s
Text: The flow rate was 3.24 mm/s and the cell scanning speed was 250 μm/s.
The width of each channel is 100 μm, the thickness is 50 μm, and the interchannel spacing is 25 μm. The procedure used for fabricating the microchannels and for patch clamping are identical to that described in Example 2 (see above). The patch clamped cell used was a PC-12 cell, which was placed between 10 to 20 micrometers away from the outlets of the microchannels. Channels 1, 3, 5 and 7 were filled with PBS buffer, while channels 2, 4 and 6 were filled with acetylcholine. The flow rate of the fluid streams was 6.8 mm/s.
The channel structure and experimental setup used in Example 3 can be used to carry out dose-response measurements, in which the concentrations of the ligands in each of the ligand streams differ by predetermined amounts. […] In this 7-channel structure, channels 1, 3, 5 and 7 were filled with PBS buffer, whereas channels 2, 4, and 6 were filled with 1 μM, 12 μM, and 200 μM nicotine, respectively. The flow rate used was 3.24 mm/s and the cell-scanning speed was 250 μm/s. The patch-clamped cell was placed between 10 to 20 μm away from the outlet of the microchannel.

For CN1CCCC1c1cccnc1 (stereo not drawn) [nicotine], the Whole-cell current response (1 μM nicotine) was “barely discernible”, the Whole-cell current peak (12 μM nicotine) was “detected with good signal-to-noise ratio” and the “Current peak at 200 μM relative to peak for 12 μM” value (200 μM vs 12 μM nicotine) was 15 to 20 times.
